Consider 25 compounds from patent US20240343704A1, “HALO-SUBSTITUTED AMINO PYRIDINE COMPOUNDS AS INHIBITORS OF THE HAEMATOPOIETIC PROGENITOR KINASE 1 (HPK1)” (priority 2021, published 2024).

As a reminder, the IC50 is the midpoint of a concentration-inhibition curve.

Bounds are passed on as bounds.

For experiment [1], the target named is T1, Recombinant (1-346) HPK1 (h) (Homo sapiens, UniProt Q92918).
T1 construct: Recombinant (1-346) HPK1 (h) is incubated with 8 mM MOPS pH 7.0
T1 sequence (Q92918 1-346): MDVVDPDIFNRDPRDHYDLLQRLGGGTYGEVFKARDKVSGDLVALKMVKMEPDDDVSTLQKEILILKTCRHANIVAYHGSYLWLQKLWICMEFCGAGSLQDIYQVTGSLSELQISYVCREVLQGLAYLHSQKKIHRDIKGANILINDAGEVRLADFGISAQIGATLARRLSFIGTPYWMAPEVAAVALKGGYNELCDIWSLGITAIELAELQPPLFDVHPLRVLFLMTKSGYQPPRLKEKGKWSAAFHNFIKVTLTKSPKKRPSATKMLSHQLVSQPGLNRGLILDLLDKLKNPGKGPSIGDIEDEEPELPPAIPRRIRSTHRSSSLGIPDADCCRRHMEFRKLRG
As to the kind of experiment: HPK1 Human STE Kinase Enzymatic Radiometric Assay. The settings on record: read-out: HPK1 IC50 nM Range*. In kind it is biochemical. How it is done:
A stock solution of 10 mM of test compound is prepared in DMSO. The compound plate was prepared by 3-fold and 9-point serial dilutions. […] The reaction is initiated by The addition of the Mg/ATP mix. After incubation for 40 minutes at RT, the reaction is stopped by the addition of phosphoric acid to a concentration of 0.5%.

Experiment [2] has as its target Lck (h) (Homo sapiens, UniProt P06239). In words: Lck Human  Kinase Enzymatic Radiometric Assay. It is filed as biochemical. Particulars: read-out: Lck IC50 nM Range*. The method in brief: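 Substrate 33P-incorporation measured by scintillation counting after spotting on P30 filtermat and phosphoric acid washes. Human Lck reacted 40 min at RT in 50 mM Tris pH 7.5 with 10 mM MgAcetate, [gamma-33P]-ATP, 250 uM Cdc2 peptide, 0.1 mM EGTA and 0.1 mM Na3VO4.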

Chain of Lck (h) (P06239 whole entry): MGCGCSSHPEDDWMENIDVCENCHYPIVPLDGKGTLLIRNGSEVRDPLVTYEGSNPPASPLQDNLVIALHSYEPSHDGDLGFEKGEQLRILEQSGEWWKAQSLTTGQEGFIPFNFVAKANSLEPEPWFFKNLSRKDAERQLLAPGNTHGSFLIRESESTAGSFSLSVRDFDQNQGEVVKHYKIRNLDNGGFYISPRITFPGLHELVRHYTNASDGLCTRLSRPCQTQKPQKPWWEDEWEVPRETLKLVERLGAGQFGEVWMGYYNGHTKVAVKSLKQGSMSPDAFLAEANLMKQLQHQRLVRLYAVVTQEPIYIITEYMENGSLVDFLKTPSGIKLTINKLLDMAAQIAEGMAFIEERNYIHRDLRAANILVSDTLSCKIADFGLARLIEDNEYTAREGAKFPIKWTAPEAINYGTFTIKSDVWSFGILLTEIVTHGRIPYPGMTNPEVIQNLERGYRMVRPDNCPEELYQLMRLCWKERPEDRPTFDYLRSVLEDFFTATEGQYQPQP

With `CCN1CCOCC1c1ccc(-c2cc(-c3ccc4c(c3)CCNC4=O)c(N)nc2F)cc1` (centres unmarked) [I-131, 6-(2-amino-5-(4-(4-ethylmorpholin-3-yl)phenyl)-6-fluoropyridin-3-yl)-3,4-dihydroisoquinolin-1(2H)-one], the IC50 was 0.1 to 10 nM in experiment [1] and over 1000 nM in experiment [2].
The corresponding values for `CN(C)CC1Cc2cc(-c3cc(-c4ccc(N5CCOCC5)cc4)c(F)nc3N)ccc2C(=O)N1` (centres unmarked) [I-311, 6-(2-amino-6-fluoro-5-(4-morpholinophenyl)pyridin-3-yl)-3-((dimethylamino)methyl)-3,4-dihydroisoquinolin-1(2H)-one] are 11 to 100 nM and over 1000 nM.
For `CN1CCN(c2ccc(-c3cc(-c4cc5c(cc4F)C(=O)NCC5)c(N)nc3F)cc2)CC1` [I-246, 6-(2-amino-6-fluoro-5-(4-(4-methylpiperazin-1-yl)phenyl)pyridin-3-yl)-7-fluoro-3,4-dihydroisoquinolin-1(2H)-one], in that order: 0.1 to 10 nM and over 1000 nM.
The corresponding values for `CC(C)N1CCCN(c2ccc(-c3cc(-c4ccc5c(c4)CCNC5=O)c(N)nc3F)cc2)CC1` [I-279, 6-(2-amino-6-fluoro-5-(4-(4-isopropyl-1,4-diazepan-1-yl)phenyl)pyridin-3-yl)-3,4-dihydroisoquinolin-1(2H)-one] are 0.1 to 10 nM and over 1000 nM.
Turning to `Nc1nc(F)c(-c2ccc(C3CCOCC3)c([C@@H]3CCCN3)c2)cc1-c1cc(F)c2c(c1)CCNC2=O` [I-369, (S)-6-(2-amino-6-fluoro-5-(3-(pyrrolidin-2-yl)-4-(tetrahydro-2H-pyran-4-yl)phenyl)pyridin-3-yl)-8-fluoro-3,4-dihydroisoquinolin-1(2H)-one], the IC50 was 0.1 to 10 nM in experiment [1] and over 1000 nM in experiment [2].
As for `Nc1nc(F)c(-c2ccc(C3CCN(CC(F)F)CC3)cc2)cc1-c1ccc2c(c1)CCNC2=O` [I-43, 6-(2-amino-5-(4-(1-(2,2-difluoroethyl)piperidin-4-yl)phenyl)-6-fluoropyridin-3-yl)-3,4-dihydroisoquinolin-1(2H)-one], the IC50 is 0.1 to 10 nM in experiment [1] and over 1000 nM in experiment [2].
For `CCN1CCCCC1c1ccc(-c2cc(-c3ccc4c(c3)CCNC4=O)c(N)nc2F)cc1` (centres unmarked) [I-100, 6-(2-amino-5-(4-(1-ethylpiperidin-2-yl)phenyl)-6-fluoropyridin-3-yl)-3,4-dihydroisoquinolin-1(2H)-one], in that order: 0.1 to 10 nM and over 1000 nM.
For `Nc1nc(F)c(-c2ccc(C3COCCN3C3COC3)cc2)cc1-c1ccc2c(c1)CCNC2=O` (centres unmarked) [I-154, 6-(2-amino-6-fluoro-5-(4-(4-(oxetan-3-yl)morpholin-3-yl)phenyl)pyridin-3-yl)-3,4-dihydroisoquinolin-1(2H)-one], in that order: 11 to 100 nM and over 1000 nM.
With `Nc1nc(F)c(-c2ccc(N3CC[C@@H](F)C3)cc2)cc1-c1ccc2c(c1)CCNC2=O` [I-112, (R)-6-(2-amino-6-fluoro-5-(4-(3-fluoropyrrolidin-1-yl)phenyl)pyridin-3-yl)-3,4-dihydroisoquinolin-1(2H)-one], the IC50 was 11 to 100 nM in experiment [1] and over 1000 nM in experiment [2].
For `CCN(C)C1CCN(c2ccc(-c3cc(-c4ccc5c(c4)CCNC5=O)c(N)nc3F)cc2)C1` (centres unmarked) [I-158, 6-(2-amino-5-(4-(3-(ethyl(methyl)amino)pyrrolidin-1-yl)phenyl)-6-fluoropyridin-3-yl)-3,4-dihydroisoquinolin-1(2H)-one], in that order: 0.1 to 10 nM and 101 to 1000 nM.
Consider `COc1cc(OC2CCNCC2)ccc1-c1cc(-c2ccc3c(c2)CCNC3=O)c(N)nc1F` [I-150, 6-(2-amino-6-fluoro-5-(2-methoxy-4-(piperidin-4-yloxy)phenyl)pyridin-3-yl)-3,4-dihydroisoquinolin-1(2H)-one], for which the IC50 was 11 to 100 nM in experiment [1] and over 1000 nM in experiment [2].
For `CN1CCN(c2ccc(-c3cc(-c4ccc5c(c4)CCNC5=O)c(N)nc3F)cc2N)CC1` [I-332, 6-(2-amino-5-(3-amino-4-(4-methylpiperazin-1-yl)phenyl)-6-fluoropyridin-3-yl)-3,4-dihydroisoquinolin-1(2H)-one], in that order: 0.1 to 10 nM and over 1000 nM.
The corresponding values for `CN1CCC(n2cc(-c3cc(-c4cc5c(cc4F)C(=O)NCC5)c(N)nc3F)cn2)CC1` [I-129, 6-(2-amino-6-fluoro-5-(1-(1-methylpiperidin-4-yl)-1H-pyrazol-4-yl)pyridin-3-yl)-7-fluoro-3,4-dihydroisoquinolin-1(2H)-one] are 0.1 to 10 nM and 101 to 1000 nM.
For `Nc1nc(F)c(-c2ccc(N3CCN(CC4CC4)CC3)cc2)cc1-c1ccc2c(=O)[nH]ccc2c1` [I-374, 6-(2-amino-5-(4-(4-(cyclopropylmethyl)piper-azin-1-yl)phenyl)-6-fluoropyridin-3-yl)isoquinolin-1(2H)-one], the values for the IC50 in experiment [1] and in experiment [2] were 0.1 to 10 nM and over 1000 nM, respectively.
The corresponding values for `CNc1cc(-c2cc(-c3ccc(N4CCN(C(C)C)CC4)cc3)c(F)nc2N)cc2c1C(=O)NCC2` [I-356, 6-(2-amino-6-fluoro-5-(4-(4-isopropylpiperazin-1-yl)phenyl)pyridin-3-yl)-8-(methylamino)-3,4-dihydroisoquinolin-1(2H)-one] are 11 to 100 nM and 101 to 1000 nM.
Regarding `CC(C)N1C[C@H]2C[C@@]2(c2ccc(-c3cc(-c4cc5c(cc4F)C(=O)NCC5)c(N)nc3F)cc2)C1` [I-141, 6-(2-amino-6-fluoro-5-(4-((1R,5S)-3-isopropyl-3-azabicyclo[3.1.0]hexan-1-yl)phenyl)pyridin-3-yl)-7-fluoro-3,4-dihydroisoquinolin-1(2H)-one], the IC50 in experiment [1] was 0.1 to 10 nM; in experiment [2], over 1000 nM.
On to `CC(C)N1CCN(c2ccc(-c3cc(-c4cc5c(cc4Cl)C(=O)NCC5)c(N)nc3F)cc2)CC1` [I-349, 6-(2-amino-6-fluoro-5-(4-(4-isopropylpiperazin-1-yl)phenyl)pyridin-3-yl)-7-chloro-3,4-dihydroisoquinolin-1(2H)-one], for which the IC50 in experiment [1] is 0.1 to 10 nM; in experiment [2], over 1000 nM.
For `CC(C)[C@@H]1CN(c2ccc(-c3cnc(N)c(-c4ccc5c(c4)CCNC5=O)c3F)c(F)c2)CCO1` [I-6, (R)-6-(2-amino-4-fluoro-5-(2-fluoro-4-(2-isopropylmorpholino)phenyl)pyridin-3-yl)-3,4-dihydroisoquinolin-1(2H)-one], in that order: 11 to 100 nM and over 1000 nM.
For the compound `CC(C)N1CCC(F)(c2ccc(-c3cc(-c4ccc5c(c4)CCNC5=O)c(N)nc3F)cc2)CC1` [I-239, 6-(2-amino-6-fluoro-5-(4-(4-fluoro-1-isopropylpiperidin-4-yl)phenyl)pyridin-3-yl)-3,4-dihydroisoquinolin-1(2H)-one], the IC50 in experiment [1] is 0.1 to 10 nM; in experiment [2] it was over 1000 nM.
As to `CS(=O)(=O)c1ccc(-c2cc(-c3ccc4c(c3)CCNC4=O)c(N)nc2F)cc1` [I-62, 6-(2-amino-6-fluoro-5-(4-(methylsulfonyl)phenyl)pyridin-3-yl)-3,4-dihydroisoquinolin-1(2H)-one], the results for the IC50 in experiment [1] and in experiment [2] were 0.1 to 10 nM and over 1000 nM, respectively.
In the case of `Cc1nc2cc(-c3cc(-c4ccc(C5CCOCC5)c(CN(C)C)c4)c(F)nc3N)ccc2c(=O)[nH]1` [I-437, 7-(2-amino-5-(3-((dimethylamino)methyl)-4-(tetrahydro-2H-pyran-4-yl)phenyl)-6-fluoropyridin-3-yl)-2-methylquinazolin-4(3H)-one], the IC50 in experiment [1] is 11 to 100 nM; in experiment [2], over 1000 nM.
Turning to `Nc1nc(F)c(-c2ccc(N3CCC(F)CC3)cc2)cc1-c1ccc2c(c1)CCNC2=O` [I-163, 6-(2-amino-6-fluoro-5-(4-(4-fluoropiperidin-1-yl)phenyl)pyridin-3-yl)-3,4-dihydroisoquinolin-1(2H)-one], the IC50 in experiment [1] was 0.1 to 10 nM; in experiment [2] it was over 1000 nM.
For `C[Si](C)(O)c1ccc(-c2cc(-c3ccc4c(c3)CCNC4=O)c(N)nc2F)cc1` [I-28, 6-(2-amino-6-fluoro-5-(4-(hydroxydimethylsilyl)phenyl)pyridin-3-yl)-3,4-dihydroisoquinolin-1(2H)-one], in that order: 11 to 100 nM and over 1000 nM.
For `CN(CC1CC1)[C@@H]1CCN(c2ccc(-c3cc(-c4ccc5c(c4)CCNC5=O)c(N)nc3F)cc2)C1` [I-161, (R)-6-(2-amino-5-(4-(3-((cyclopropylmethyl)(methyl)amino)pyrrolidin-1-yl)phenyl)-6-fluoropyridin-3-yl)-3,4-dihydroisoquinolin-1(2H)-one], in that order: 0.1 to 10 nM and 101 to 1000 nM.
For `CC(C)[C@H]1CN(c2ccc(-c3cnc(N)c(-c4ccc5c(c4)CCNC5=O)c3F)cc2)CCO1` [I-5, (S)-6-(2-amino-4-fluoro-5-(4-(2-isopropylmorpholino)phenyl)pyridin-3-yl)-3,4-dihydroisoquinolin-1(2H)-one], in that order: 11 to 100 nM and over 1000 nM.
